Measurements reported in patent publication US20100105766A1, “COMPOSITION FOR INHIBITION OR PREVENTION OF BONE DENSITY REDUCTION” (Kirin Beer Kabushiki Kaisha, priority 2003, published 2010).
Entries after “also recorded” stand apart in the source; their conditions may differ.

What was measured:
[1] = test system: estrogen-responsive human breast cancer-derived MCF-7 cells; experiment: Estrogen activity measured by cell growth of MCF-7 cells (Cell Counting Kit); type: cell-based; conditions: for estrogen activity compared with the activity of estradiol: MCF-7 cell growth, relative to 17β-estradiol; for estrogen activity (cell growth of MCF-7 cells as index): 7 days of culture, absorbance at 450 nm
Procedure: The estrogen activity of the test compound was measured using as an index cell growth of estrogen-responsive human breast cancer-derived MCF-7 cells. The cell line used is one that expressed an estrogen receptor and enhanced cell growth in the presence of an estrogen-like substance. Therefore, the estrogen activity was measured by measuring the cell growth of the cell line with Cell Counting Kit (manufactured by DOJINDO LABORATORIES).
The measurement of cell growth of MCF-7 cells with the Cell Counting Kit was carried out by measuring the absorbance at 450 nm of formazane produced from a WST-1 reagent ([…], monosodium salt) incorporated in cells with a microplate reader (SOFTmax (manufactured by Molecular Devices Corporation)).
More specifically, MCF-7 cells were precultured for 3 days in a DMEM medium containing 10% of fetal calf serum (manufactured by Gibco), which had been treated using Dextran-Coated Charcoal (manufactured by Sigma) for adsorbing and removing endogenous steroids, and further containing penicillin and streptomycin (each 10000 units, 1 mg/ml, manufactured by Gibco), 0.1 mM nonessential amino acid (manufactured by Gibco), 1 mM sodium pyruvate (manufactured by Gibco), and 1 μg/ml insulin (human recombinant 27.5 USP unit/mg: (manufactured by Sigma)). A cell suspension having an MCF-7 cell concentration of 8×10^4 cells/ml was prepared and was seeded on a 96 well plate in an amount of 100 μl/well. One day after the initiation of the culture, the medium in the wells was replaced by a medium containing a test compound (0.1% (v/v)) dissolved in dimethylsulfoxide, and culture was continued. On the fourth day of the culture, the medium in the wells was again replaced by a fresh medium containing the test compound. On the seventh day of the culture, the cell growth was measured with Cell Counting Kit.
For purified isoxanthohumol and chemically synthesized 8-prenylnaringenin, the estrogen activity was measured in the same manner as in test 1, except that the concentrations of the test compound in the medium for MCF-7 cell culture were set as follows.
Isoxanthohumol was added so that the concentration of isoxanthohumol in the medium was 1.0×10^−5, 1.0×10^−6, 1.0×10^−7, 1.0×10^−8, 1.0×10^−9, and 1.0×10^−10 mol/L.

[2] = test system: ovariectomized female SD rats; experiment: Amelioration of bone mineral density reduction after removal of ovaries (pQCT, femur), test 4; type: in vivo, rat; conditions: oral 10 ml/kg once a day for 28 days, concentrations equal to those in beer (isoxanthohumol also 5-fold and 20-fold)
Procedure: Ovaries on both sides of 9-week old female SD rats were removed, and, from the next day of the ovary removal, the test compound was orally administered into the stomach through a stomach tube (liquid amount 10 ml/kg) once a day for 28 days.
(§1) For the control group and sham operation group, the 0.8% aqueous ethanol solution was orally administered in the same manner as in the test compound administration group. 17β-Estradiol was provided as a positive control and was subcutaneously administered at a dose of 4 μg/kg/day.
Beer (domestically produced pilsner beer) contained 2.1 mg/L isoxanthohumol and 43 μg/L 8-prenylnaringenin. Here this beer was once lyophilized and was then dissolved in water to remove ethanol to give a test compound which was then used in the test.
Isoxanthohumol was dissolved in a 0.8% aqueous ethanol solution so that, as compared with the concentration of isoxanthohumol contained in beer, the resultant solutions had 1-fold, 5-fold and 20-fold isoxanthohumol concentrations. […]
The bone mineral density was measured by dissecting the femur of rats and identifying the cancellous bone mineral density at the distal metaphysis bone end with a pQCT (Peripheral Quantitative computed tomography) bone mineral density measuring apparatus (XCT-960A, manufactured by Norland Stratec).

[3] = test system: young Wistar female rats; experiment: In vivo estrogen activity in immature rats (uterine weight), test 3-a; design: species or system rat; conditions: oral 1, 5 or 25 mg/kg/day once a day for 3 days
Procedure: In vivo estrogen activity was evaluated using young Wistar female rats. The rats used were provided as follows. At the outset, 20-day old Wistar female rats (available from Charles River Japan, Inc.) were selected so that the difference in body weight among the animals was within ±10% of the average body weight. Thereafter, the animals were randomly grouped so that each group consisted of 6 animals. The animals were reared with free feeding of water and AlN-76A (manufactured by CLEA JAPAN INC.).
After preliminary rearing for one day, isoxanthohumol or 8-prenylnaringenin was forcibly orally administered into the stomach through a stomach tube at a dose of 1, 5, or 25 mg/kg/day (liquid amount 10 ml/kg) once a day for 3 days. For the control group, a solvent (peanut oil) was orally administered in the same manner as described, and for the positive control, 17β-estradiol was provided and was orally administered at a dose of 400 μg/kg/day in the same manner as described above. About 24 hr after the final administration, the uterine was harvested from the rats, and the weight of the uterine was measured to measure the in vivo estrogen activity.

[4] = test system: ovariectomized female SD rats; experiment: In vivo estrogen activity in ovariectomized rats (uterine weight), test 3-b; design: species or system rat
Procedure: Ovaries on both sides of 9-week old female SD rats (available from Charles River Japan, Inc.) were removed, and the rats were randomly grouped so that each group consisted of 6 animals. The animals were reared with free feeding of water and AlN-76A (manufactured by CLEA JAPAN INC.). From the next day of the operation, the test compound was forcibly orally administered into the stomach through a stomach tube (liquid amount 10 ml/kg) once a day for 28 days.
as §1, with “Isoxanthohumol was dissolved in a 0.8% aqueous ethanol solution so that, as compared with the concentration of isoxanthohumol contained in beer, the resultant solutions had 1-fold, 5-fold and 20-fold isoxanthohumol concentrations. For” for “For”, “2” for “4”

[5] = test system: bone resorption; conditions: in vitro experiment, reported in the literature; cited from earlier work

For `CC(C)=CCc1c(O)cc(O)c2c1O[C@H](c1ccc(O)cc1)CC2=O` [8-prenylnaringenin, reference compound], the “estrogen activity compared with the activity of estradiol” value [1] was 10^−2 time, the “estrogen activity (cell growth of MCF-7 cells as index)” value [1] was “had estrogen activity” and the “amelioration of cancellous bone mineral density reduction in the femur” value [2] was “This amelioration was not observed”.
For `COc1cc(O)c(CC=C(C)C)c2c1C(=O)CC(c1ccc(O)cc1)O2` (stereo not drawn) [isoxanthohumol], the “estrogen activity compared with the activity of estradiol” value [1] was “about 10^−5 time”, the “estrogen activity (cell growth of MCF-7 cells as index)” value [1] was “had estrogen activity; also recorded: has estrogen activity” and the “in vivo estrogen activity (uterine weight increasing activity)” value [3] was “did not have in vivo estrogen activity for immature rats or had only a very low level of activity; also recorded: did not exhibit uterine weight increasing activity; also recorded: uterine hypertrophy action was not observed”. For the same molecule, the “dose without uterine weight increasing activity relative to the dose that exhibited bone mineral density reduction inhibitory activity” value [4] was 20 times, the “in vivo estrogen activity (recovery of uterine weight)” value ([4]; oral 10 ml/kg once a day for 28 days, 1-fold, 5-fold and 20-fold the concentration in beer) was “significant recovery of the weight of the uterine was not observed; also recorded: did not exhibit uterine weight increasing activity” and the “amelioration of cancellous bone mineral density reduction in the femur” value [2] was “confirmed to be effective; also recorded: better than the effect of xanthohumol; also recorded: significantly ameliorated; also recorded: significantly improved a bone mineral density reduction”.
In the case of `COc1cc(O)c(CC=C(C)C)c(O)c1C(=O)/C=C/c1ccc(O)cc1` [xanthohumol, reference compound], the “amelioration of cancellous bone mineral density reduction in the femur” value [2] is given as “any activity as in isoxanthohumol was not observed” and the “bone resorption inhibitory effect” value [5] is given as “proven to have bone resorption inhibitory effect”.
In the case of Humulons, the “bone resorption inhibitory effect” value [5] is given as “proven to have bone resorption inhibitory effect”.
